Assay [1] relates to 8-cell bovine embryos cultured singly. Description: Example 7: Hb (1 μg/ml) in mBECM-S, 8-cell embryos derived from Hb-containing co-culture, cultured singly. The assay is classed as cell-based. The procedure: mBECM containing 10 μM β-mercaptoethanol was used to culture embryos, as described in J. Lim et al., “Roles of growth factors in the development of bovine embryos fertilized in vitro and cultured singly in a defined medium,” Reprod. Fertil. Dev., 8, 1199-1205 (1996). To culture individual 8-cell embryos we used mBECM supplemented with 1 ng/ml platelet derived growth factor type AB (PDGF; Upstate Biotechnology Inc., Lake Placid, N.Y.), 1 ng/ml transforming growth factor-β (TGF; R & D System, Minneapolis, Minn.), 50 ng/ml arachidonic acid (AA; Cayman Chemical Co., Ann Arbor, Mich.), 100 μM glutathione (GSH; Sigma Co.) and 1 mg/ml polyvinyl alcohol (PVA) (mBECM-S). mBECM to which 10% (v/v) FBS was added (mBECM-C) was used for co-culturing inseminated zygotes with CGs and for producing 8-cell embryos. Osmolarity of the medium was maintained within the range of 265-290 mOsm.
The bovine cumulus-oocyte complexes (COCs) used were collected in Madison, Wis. (BOMED, Inc.), and were shipped in 2-ml of maturation medium in a battery powered incubator via overnight express mail service. Oocytes matured during transit and arrived within 24 h after exposure to maturation medium, pre-equilibrated at 39° C. in 5% CO2 in air. At 22-24 h after exposure to the medium, the COCs were inseminated in vitro as described in J. Lim et al., “Intracytoplasmic glutathione concentration and the role of β-mercaptoethanol in preimplantation development of bovine embryos,” Theriogenology, 46, 429-439 (1996). At 18 h post-insemination, COCs were cultured in groups (30-35 embryos) in a 4-well multidish (Nunc, Roskilde, Denmark) containing 0.8-ml of mBECM-C. Embryos were dislodged from CGs at 36-48 h post-insemination.
In Example 1, embryos (83-85 per group) collected 18 h post-insemination were cultured in mBECM-C, to which 0, 0.008, or 0.04 mM SNP was added at 18 or 60 h post-insemination. In Example 2, 8-cell embryos (80 per group) were produced in a co-culture system containing CGs and mBECM-C, and then beginning at 60 h post-insemination were cultured singly in a defined culture medium (mBECM-S), to which 0, 0.0016, 0.008, or 0.04 mM of SNP (S-0501, Sigma Co.) was added. In Example 3 embryos, either uncleaved (n=99) or developed to the 2-cell stage (90), were collected 48 h post-insemination; and cleaved embryos, either developed to the morula stage (69) or degenerate (63) were collected 144 h post-insemination. NO metabolites were then measured in the embryos. In Example 4, three groups of 95 zygotes each were co-cultured with CGs in mBECM-C, to which 0, 1, or 10 μg/ml Hb (bovine, mainly methemoglobin, H-2500, Sigma Co.) was added. […] Inseminated oocytes (104 per group) were co-cultured with CGs in MBECM-C up to 192 h post-insemination; and Hb (1 μg/ml) was added to the medium at 18, 60, or 144 h post-insemination. In Example 6, inseminated oocytes (93 per group) were cultured in the presence or absence of CGs in mBECM-C to which either 0 or 1 μg/ml Hb was added. […]
Oocytes or 8-cell embryos were randomly and equally allocated to each treatment group. In Examples 1, 2, and 4-7, oocytes or embryos that had developed to the 2-cell, 8-cell, >8-cell, 16-cell morula, and blastocyst stages were individually scored ‘1’ (developed) at 48, 60, 96, 120, 144 and 192 h post-insemination, respectively. […] Sums of the scores in each stage of development were evaluated by analysis of variance (ANOVA) using the general linear model (PROC-GLM) in the SAS program software. […]

The test system of a further assay is bovine blastocysts. As to the kind of experiment: Example 8 supplemental: blastocyst cell number by Hoechst 33342 stain. The assay is classed as cell-based. The settings on record: 8 days after insemination; Hb 1 μg/ml added to culture medium; vs. 124.2±8.4. The procedure: In Example 8, bovine follicular oocytes were collected from November 1996 to May 1997, and matured and fertilized in culture. (Oocytes collected during summer and early fall were not used in this study, to avoid interference from environmental heat stress on in vitro survival of embryos.) IVF embryos were collected at 18 h post-insemination and cultured in mBECM supplemented with FBS (10%, v/v), to which 0 or 1 μg/ml Hb (from bovine, mainly methemoglobin, H-2500, Sigma Co.) was added. Development of embryos to the 2-cell, 8-cell, 16-cell, morula, and blastocyst stages was monitored 48, 60, 120, 144 and 192 h post-insemination, respectively. As a supplemental experiment, some blastocysts in each treatment (20 or 28) were randomly collected, and the cell number of the blastocysts was counted by use of Hoechst stain 33342 and a fluorescent microscope (Diaphod, Nikkon, Tokyo, Japan). This experiment used 1675 embryos in 25 replicates, with IVF embryos randomly allotted among treatments.

For the substance hemoglobin [Hb], the “Number of embryos developed to >8-cell” value in assay [1] (Hb 1 μg/ml present in mBECM-S, 100 8-cell embryos, examined 96 h) amounted to 68. The “Number of embryos developed to 16-cell” value in assay [1] (Hb 1 μg/ml present in mBECM-S, 100 8-cell embryos, examined 120 h) came out at 44. In addition, the “Number of embryos developed to Morula” value in assay [1] (Hb 1 μg/ml present in mBECM-S, 100 8-cell embryos, examined 144 h) came to 26. Besides, the “Number of embryos developed to Blastocyst” value in assay [1] (Hb 1 μg/ml present in mBECM-S, 100 8-cell embryos, examined 192 h) came to 8. In assay [1] (Hb added to mBECM-S, P>0.09), the “effect on proportions of 8-cell embryos developing to each embryonic stage” value was “no significant effect”. Further, the “number of blastocyst cells” value with bovine blastocysts is 128.6±7.1.

(Values after patent publication US6864086B2, “Nitric oxide-scavenging system for culturing oocytes, embryos, or other cells” (Board of Supervisors of Louisiana State University and …, priority 1998, dated 2005).)
